Measured values reported in patent US20080311126A1, “Antisense Oligonucleotides Directed to Ribonucleotide Reducatase R2 and Uses Thereof in Combination Therapies for the Treatment of Cancer” (Genesense Technologies, Inc, priority 2004, published 2008).
Oligonucleotides are written 5' to 3', each unit as a sugar letter and its base; * is a phosphorothioate linkage, no mark a phosphodiester; rarer units and linkages stand in square brackets, end groups in braces. Plain capitals give the bases only. d = 2'-deoxy (DNA)

What was measured:
Type in all cases: cell-based, human
[1] = test system: MDA PaCa-2 pancreatic cell carcinoma; assay: Relative colony forming efficiency (Example 17, Table 13); conditions: MIA PaCa-2 pancreatic cell carcinoma; averages of 2-8 determinations
Summary of the method: (§1)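 Read-out: methylene blue-stained colonies scored and expressed as percent of control, given as % inhibition of colony forming ability. Cells had been exposed for four hours to phosphorothioate deoxyribonucleotides, usually 0.2 μM, complexed with 2.5 μg DOTMA/DOPE.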

[2] = test system: H596 lung adenosquamous carcinoma cells; assay: as above; conditions: averages of 2-8 determinations
Summary of the method: as §1

A549 lung cell carcinoma = assay: as above; conditions: averages of 2-8 determinations
Summary of the method: as §1

[3] = test system: T-47D breast ductal carcinoma; assay: as above; conditions: averages of 2-8 determinations
Summary of the method: as §1

[4] = test system: T24 bladder cell carcinoma; assay: as above; conditions: averages of 2-8 determinations
Summary of the method: as §1

[5] = test system: PC-3 prostrate cell adenocarcinoma; assay: as above; conditions: averages of 2-8 determinations
Summary of the method: as §1

[6] = test system: HCT116 colon cell carcinoma; assay: as above; conditions: averages of 2-8 determinations
Summary of the method: as §1

[7] = test system: HepG2 hepatocellular carcinoma; assay: as above; conditions: averages of 2-8 determinations
Summary of the method: as §1

[8] = test system: MDA-MB-231 breast cell adenocarcinoma; assay: as above; conditions: averages of 2-8 determinations
Summary of the method: as §1

Hela S3 cells = assay: Relative colony forming efficiency, lipofectin +/- oligonucleotide 4 hours; conditions: Hela S3 cervix carcinoma cells; averages of 2-8 determinations
Summary of the method: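 HeLa S3 cells were exposed to phosphorothioate antisense oligonucleotide (0.2 μM unless stated) with lipofectin for 4 h, then grown 7–10 days in 10% FBS medium. Methylene blue-stained colonies were counted and expressed as percent survival relative to lipofectin-only controls.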

Substance | Reduced relative colony forming efficiency, MIA PaCa-2 (% inhibition of colony forming ability) [1] | Reduced relative colony forming efficiency, 11596 (% inhibition of colony forming ability) [2] | Reduced relative colony forming efficiency, A549 (% inhibition of colony forming ability) (A549 lung cell carcinoma) | Reduced relative colony forming efficiency, T-47D (% inhibition of colony forming ability) [3] | Reduced relative colony forming efficiency, T24 (% inhibition of colony forming ability) [4] | Reduced relative colony forming efficiency, PC-3 (% inhibition of colony forming ability) [5] | Reduced relative colony forming efficiency, HCT116 (% inhibition of colony forming ability) [6] | Reduced relative colony forming efficiency, HepG2 (% inhibition of colony forming ability) [7] | Reduced relative colony forming efficiency, MDA-MB-231 (% inhibition of colony forming ability) [8] | Reduced relative colony forming efficiency, Hela S3 (% inhibition of colony forming ability) (Hela S3 cells)
GCTATTATCGCCGCCGTGAG (antisense dG*dC*dT*dA*dT*dT*dA*dT*dC*dG*dC*dC*dG*dC*dC*dG*dT*dG*dA*dG) [AS-II-1773-20] | 45.68% | 66.04% | 70.11% | 84.38% | 15.19% | 70.04% | 75.58% | 58.19% | 44.76% | 80.27%
CCTGTCTTCTATCTGGCACC (antisense dC*dC*dT*dG*dT*dC*dT*dT*dC*dT*dA*dT*dC*dT*dG*dG*dC*dA*dC*dC) [AS-II-1989-20] | 70.22% | 56.33% | 83.9% | 90.83% | 77.43% | 77.38% | 78.47% | 80.7% | 54.9% | 61.41%
CGGAGGGAGAGCATAGTGGA (antisense dC*dG*dG*dA*dG*dG*dG*dA*dG*dA*dG*dC*dA*dT*dA*dG*dT*dG*dG*dA) [AS-II-189-20] | 70.52% | 26.15% | 76.57% | 96.63% | 18.57% | 73.12% | 86.78% | 57.86% | 39.86% | 76.67%
C*CCC*TCAC*TCC*AGC*AGC*CT*T (antisense dC*dCdCdC*dTdCdAdC*dTdCdC*dAdGdC*dAdGdC*dCdT*dT) [AS-II-109-20] | 54.24% | 7.28% | 15.14% | 20.63% | 24.89% | 61.51% | 6.76% | 18.08% | 22.38% | 46.83%
CCCAGGACACTACACAAGCC (antisense dC*dC*dC*dA*dG*dG*dA*dC*dA*dC*dT*dA*dC*dA*dC*dA*dA*dG*dC*dC) [AS-II-2026-20] | 87.65% | 84.16% | 88.81% | 93.41% | 95.46% | 95.29% | 81.47% | 94.54% | 77.1% | 83.79%
GCAGCGAAGCAGAGCGAGCA (antisense dG*dC*dA*dG*dC*dG*dA*dA*dG*dC*dA*dG*dA*dG*dC*dG*dA*dG*dC*dA) [AS-II-166-20] | 91.36% | 61.99% | 81.1% | 91.4% | 68.99% | 74.11% | 73.84% | 78.72% | 29.02% | 80.1%
GCGAGCGGGACACGGAGGGA (antisense dG*dC*dG*dA*dG*dC*dG*dG*dG*dA*dC*dA*dC*dG*dG*dA*dG*dG*dG*dA) [AS-II-201-20] | – | 49.6% | 90.55% | 98.53% | 96.2% | 65.08% | 45.56% | 59.32% | 25.17% | 90.87%
G*CC*TCCG*ACC*CTTC*CC*ATT*G (antisense dG*dCdC*dTdCdCdG*dAdCdC*dCdTdTdC*dCdC*dAdTdT*dG) [AS-II-13-20] | – | 19.63% | 32.3% | 15.33% | 18.99% | 52.38% | 6.95% | 24.11% | 45.45% | 19.85%
